{
  "source": "paper PMC12491243",
  "about": "“Rational design of indoleamine 2,3-dioxygenase 1 (IDO1) inhibitors featuring 1,2,3-triazole derivatives with enhanced anti-inflammatory and analgesic efficacy” (Frontiers in Pharmacology, 2025)",
  "key": {"[1]": {"test_system": "CFA-induced inflammatory pain model", "test": "CFA-induced thermal hyperalgesia, paw withdrawal latency", "format": "in vivo", "settings": "CFA mice, 30 mg/kg i.p., ipsilateral side, 12 to 72 h post-CFA", "experimental": "To evaluate the analgesic effects of Compound 14e in vivo, we established an inflammatory pain model using intraplantar injection of CFA. Compound 14e (30 mg/kg) was administered intraperitoneally at 6 h, with subsequent doses at 48 and 72 h after CFA injection. Behavioral assessments, including von Frey testing for mechanical allodynia and heat stimuli for thermal hyperalgesia, were conducted on the injected hind paw at baseline (BL), as well as at 6, 12, 18, 24, 48 and 72 h post-CFA injection. Additionally, flinching and guarding behaviors, indicators of spontaneous pain, were evaluated 72 h after CFA injection.\nFIGURE 5 Compound 14e attenuates mechanical allodynia, thermal hyperalgesia and spontaneous pain of inflammatory pain in mice. (A,B) Evaluation of CFA-induced mechanical allodynia as assessed by withdrawal frequency to 0.07 g (A) and 0.4 g (B) von Frey filaments in mice repetitive treated with 10% DMSO or compound 14e. […]\nThe compound 14e were diluted with 10% DMSO, and were intraperitoneally injected with 30 mg/kg into the mice once a day for 3 days after CFA. The dosage of compound 14e was determined based on our preliminary experiments.\nFor the thermal nociceptive response, paw withdrawal latencies (PWLs) to thermal stimulus were measured by a heat flux radiometer (Ugo Basile S.R.L., Italy) ([Liu et al., 2023]). […]"}, "[2]": {"test_system": "CFA-induced inflammatory pain model", "test": "CFA-induced spontaneous pain, flinching and guarding behaviors", "format": "in vivo", "settings": "CFA mice, 30 mg/kg i.p. repeated, 72 h post-CFA", "experimental": "To evaluate the analgesic effects of Compound 14e in vivo, we established an inflammatory pain model using intraplantar injection of CFA. Compound 14e (30 mg/kg) was administered intraperitoneally at 6 h, with subsequent doses at 48 and 72 h after CFA injection. Behavioral assessments, including von Frey testing for mechanical allodynia and heat stimuli for thermal hyperalgesia, were conducted on the injected hind paw at baseline (BL), as well as at 6, 12, 18, 24, 48 and 72 h post-CFA injection. Additionally, flinching and guarding behaviors, indicators of spontaneous pain, were evaluated 72 h after CFA injection. […] (A,B) Evaluation of CFA-induced mechanical allodynia as assessed by withdrawal frequency to 0.07 g (A) and 0.4 g (B) von Frey filaments in mice repetitive treated with 10% DMSO or compound 14e. (C) Assessment of CFA-induced thermal hyperalgesia in the latency in mice treated with 10% DMSO or compound 14e. […] The dosage of compound 14e was determined based on our preliminary experiments. Spontaneous nociceptive behavior was recorded in previous studies ([Liu et al., 2023]; [Yang et al., 2018]) Mice were placed in the Plexiglas chamber and allowed to habituate for 30 min. Following acclimatization, the number of flinches and the time spent on guarding behaviors were analyzed for 10 min. […]"}},
  "data": [
    {"compound": "O=C1COc2ccc(NC(=O)c3cccc(-c4cn(Cc5c(F)cccc5Cl)nn4)c3)cc2N1", "note": "[Compound 14e]", "values": [
      {"measurement": "thermal hyperalgesia, paw withdrawal latency (PWL)", "setting": "[1]", "result": "significantly alleviated"},
      {"measurement": "spontaneous pain behaviors (flinching and guarding)", "setting": "[2]", "result": "significantly reduced"}
    ]}
  ]
}
